From US20230210902A1, “SARS-COV-2-SPECIFIC T CELLS” (priority 2020, published 2023) come the findings set out here.

The subject of the data set is CTLs from Cas9 control and NR3C1 KO groups. Put plainly: Annexin V apoptosis assay with dexamethasone. The class given is cell-based, human. Particulars: 200 µM, 72 hours. The method, then:
Annexin V apoptosis assay was performed to evaluate the effect of dexamethasone on the viability of CTLs from Cas9 control and NR3C1 KO groups. CTLs from both groups were treated with 200 µM dexamethasone (Sigma) for 72 hours. Cells were then collected, washed with annexin V buffer, and stained with annexin V (V500; BD Biosciences) and live/dead viability dye (efluor 660; Invitrogen) in addition to CD3 APC Cy7 (Biolegend, Clone HIT3A), CD4 APC (E Biosciences, Clone SK3), and CD8 PerCP Cy5.5 (Biolegend, Clone SK1). The proportion of apoptotic (positive for annexin V) and dead CTLs (positive for live/dead stain) was determined by flow cytometry.

In the case of `C[C@@H]1C[C@H]2[C@@H]3CCC4=CC(=O)C=C[C@]4(C)[C@@]3(F)[C@@H](O)C[C@]2(C)[C@@]1(O)C(=O)CO` [Dex, dexamethasone], the “viability of control Cas9 COVID-19 CTLs” value is on record as “absence of viable cells”.
